For assay [1], the system named is JAK2V617F knock-in mouse models. Briefly: Splenomegaly in Jak2V617F knock-in mouse model of MPN. The assay is classed as in vivo. As to conditions: Compound 2 30 mg/kg/per day, compared with vehicle treatment. How it is done:
In animal models, JAK2V617F expression typically leads to the development of MPN-like disease which results in enlargement of spleen (splenomegaly), higher cell counts, and fibrotic evolution. JAK2V617F knock-in mouse models were used to investigate the effect of the combination of Compound 2 with ruxolitinib. Animals were dosed with either Compound 2, ruxolitinib, or the combination of Compound 2 with ruxolitinib. […] Data are shown in bar graphs as mean±SEM (n=4 for vehicle; n=7 for Compound 2 I; n=4 for ruxolitinib; n=7 for combo drug treatment) in FIG. 6B. (*p<0.05; **p<0.005).

Assay [2] concerns Human JAK2V617F-positive UKE-1 cells. In words: Apoptosis by Annexin V staining and flow cytometry in UKE-1 cells. The assay is classed as cell-based. As to conditions: 72 hours, Annexin V staining; single drug. How it is done: The following experiment was designed to test whether the combination of Compound 2 and ruxolitinib induces apoptosis in UKE-1 cells harboring a JAK2V617F mutation. […] Cell apoptosis was determined by Annexin V staining and flow cytometry.

Molecules are shown by their SMILES.

We go through one compound from patent publication US20250120978A1, “JAK INHIBITOR WITH ERK1/2 AND/OR SHP2 INHIBITORS COMBINATION THERAPY” (Erasca, Inc., priority 2021, published 2025).

As for `COCOC[C@H]1C[C@H]2COc3c(Sc4cnc(N5CCC6(CC5)CO[C@@H](C)[C@H]6N)c(CO)n4)ccnc3N2C1` [Compound 2, (3-((3S,4S)-4-amino-3-methyl-2-oxa-8-azaspiro[4.5]decan-8-yl)-6-(((6aS,8S)-8-((methoxymethoxy)methyl)-6a,7,8,9-tetrahydro-6H-pyrido[3,2-b]pyrrolo[1,2-d][1,4]oxazin-4-yl)thio)pyrazin-2-yl)methanol], the spleen size/weight result in assay [1] was “significantly reduced”. The cell apoptosis result in assay [2] was “induced apoptosis”.
